This passage reports IC50 results from patent US20190135793A1, “HETEROCYCLIC INHIBITORS OF KDM5 FOR THE TREATMENT OF DISEASE” (Board of Regents, The University of Texas System, priority 2017, published 2019).

In one assay the target is T1, KDM5B (Homo sapiens, UniProt Q9UGL1).
T1 construct: Full length of KDM5B and KDM4C protein were purchased from Active Motif; purchased Active Motif 31832
Description: biochemical. Summed up:
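KDM5B (0.5 nM final) was preincubated with compound for 15 min at room temperature, then reacted with biotinylated peptide (3 nM final) for 25 min at room temperature.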

Another assay has as its target T2, KDM4C (Homo sapiens, UniProt Q9H3R0).
T2 construct: Full length of KDM5B and KDM4C protein were purchased from Active Motif; purchased Active Motif 31858
T2 sequence (Q9H3R0 1-1056): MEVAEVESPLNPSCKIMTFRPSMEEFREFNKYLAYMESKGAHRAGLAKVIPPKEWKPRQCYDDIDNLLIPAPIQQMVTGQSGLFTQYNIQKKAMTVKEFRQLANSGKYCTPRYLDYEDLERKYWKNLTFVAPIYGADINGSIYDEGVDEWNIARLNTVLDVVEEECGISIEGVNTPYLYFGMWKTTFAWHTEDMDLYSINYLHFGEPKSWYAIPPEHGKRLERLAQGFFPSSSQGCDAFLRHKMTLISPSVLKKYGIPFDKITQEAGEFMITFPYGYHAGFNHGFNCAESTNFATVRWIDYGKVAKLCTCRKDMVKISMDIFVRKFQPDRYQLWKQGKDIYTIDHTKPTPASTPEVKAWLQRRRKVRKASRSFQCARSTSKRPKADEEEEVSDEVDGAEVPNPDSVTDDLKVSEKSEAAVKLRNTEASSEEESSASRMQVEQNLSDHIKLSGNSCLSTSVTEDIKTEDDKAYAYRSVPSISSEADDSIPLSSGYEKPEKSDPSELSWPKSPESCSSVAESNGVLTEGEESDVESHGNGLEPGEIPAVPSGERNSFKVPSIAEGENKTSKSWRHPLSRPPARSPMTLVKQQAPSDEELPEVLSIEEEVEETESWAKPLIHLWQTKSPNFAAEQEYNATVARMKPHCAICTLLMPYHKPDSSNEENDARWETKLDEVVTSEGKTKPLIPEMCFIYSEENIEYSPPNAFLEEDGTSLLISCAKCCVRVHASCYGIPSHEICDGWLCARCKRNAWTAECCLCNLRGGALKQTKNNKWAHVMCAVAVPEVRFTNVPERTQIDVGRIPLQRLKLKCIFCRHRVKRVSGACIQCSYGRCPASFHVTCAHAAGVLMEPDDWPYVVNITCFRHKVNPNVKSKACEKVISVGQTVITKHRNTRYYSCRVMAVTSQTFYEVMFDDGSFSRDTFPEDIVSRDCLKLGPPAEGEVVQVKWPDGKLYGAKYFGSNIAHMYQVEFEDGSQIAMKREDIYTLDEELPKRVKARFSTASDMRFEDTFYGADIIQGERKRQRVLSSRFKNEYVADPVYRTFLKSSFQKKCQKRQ
Description: KDM4C AlphaScreen assay. Format: biochemical. The following applies: AlphaScreen; full length KDM4C 0.2 nM; biotinylated H3K9Me3 peptide 3 nM; 30 minutes at room temperature. Summed up: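 Full-length KDM4C (0.2 nM final) was preincubated 15 min at RT with compound in HEPES pH 7.4 with Tween-20, BSA and TCEP. The reaction ran 30 min at RT after adding biotinylated peptide (3 nM final) in buffer with Fe(II), α-ketoglutarate and ascorbate. EDTA-containing AlphaScreen beads stopped it; IC50 was curve-fitted.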
A general note: Alpha assays give light when donor and acceptor beads are brought close together.

The mark [1] stands for this setting: AlphaScreen, full length KDM5B 0.5 nM, biotinylated H3K4Me3 peptide 3 nM, 25 minutes at room temperature, read-out: KDM5B (IC50).

Like-named read-outs stand apart in the source and are kept apart here.

T1 sequence (Q9UGL1 whole entry): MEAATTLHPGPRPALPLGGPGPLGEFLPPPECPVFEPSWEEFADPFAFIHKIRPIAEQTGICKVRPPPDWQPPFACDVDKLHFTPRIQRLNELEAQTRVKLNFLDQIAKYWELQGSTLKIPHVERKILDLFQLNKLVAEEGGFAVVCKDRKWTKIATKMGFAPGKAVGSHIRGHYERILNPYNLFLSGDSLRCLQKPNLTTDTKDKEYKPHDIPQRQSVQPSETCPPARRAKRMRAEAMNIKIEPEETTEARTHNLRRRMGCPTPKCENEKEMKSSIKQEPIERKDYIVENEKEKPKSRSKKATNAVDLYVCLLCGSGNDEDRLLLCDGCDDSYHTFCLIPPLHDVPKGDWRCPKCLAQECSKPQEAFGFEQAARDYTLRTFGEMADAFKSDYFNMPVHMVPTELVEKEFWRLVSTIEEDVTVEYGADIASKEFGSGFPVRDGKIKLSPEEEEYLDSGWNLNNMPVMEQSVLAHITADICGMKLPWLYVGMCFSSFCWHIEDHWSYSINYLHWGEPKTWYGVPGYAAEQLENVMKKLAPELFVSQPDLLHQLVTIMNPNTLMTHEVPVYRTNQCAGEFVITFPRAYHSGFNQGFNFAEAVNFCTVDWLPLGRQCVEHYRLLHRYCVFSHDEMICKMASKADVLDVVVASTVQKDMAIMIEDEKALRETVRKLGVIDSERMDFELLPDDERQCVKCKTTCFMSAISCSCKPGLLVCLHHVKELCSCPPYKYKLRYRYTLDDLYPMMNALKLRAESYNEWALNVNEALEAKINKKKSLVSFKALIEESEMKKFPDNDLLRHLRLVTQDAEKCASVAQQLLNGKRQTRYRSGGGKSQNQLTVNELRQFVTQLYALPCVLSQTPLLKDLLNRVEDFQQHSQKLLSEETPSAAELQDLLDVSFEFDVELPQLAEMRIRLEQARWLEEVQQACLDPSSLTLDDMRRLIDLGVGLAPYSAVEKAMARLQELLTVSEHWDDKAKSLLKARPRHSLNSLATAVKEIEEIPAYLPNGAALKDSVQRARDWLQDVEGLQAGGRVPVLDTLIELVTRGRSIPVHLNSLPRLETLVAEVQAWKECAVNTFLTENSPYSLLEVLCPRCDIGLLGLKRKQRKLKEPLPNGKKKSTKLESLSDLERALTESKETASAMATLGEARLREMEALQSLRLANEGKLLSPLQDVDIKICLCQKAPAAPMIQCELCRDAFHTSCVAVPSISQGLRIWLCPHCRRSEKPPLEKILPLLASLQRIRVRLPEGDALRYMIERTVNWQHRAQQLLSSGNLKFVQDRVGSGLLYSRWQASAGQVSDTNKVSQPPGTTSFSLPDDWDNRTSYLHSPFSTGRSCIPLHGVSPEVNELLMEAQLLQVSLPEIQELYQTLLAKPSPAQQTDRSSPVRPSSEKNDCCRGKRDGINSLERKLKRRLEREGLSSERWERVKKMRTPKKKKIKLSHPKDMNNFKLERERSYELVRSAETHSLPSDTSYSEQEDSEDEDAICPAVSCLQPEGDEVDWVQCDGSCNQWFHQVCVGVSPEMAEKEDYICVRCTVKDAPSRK

On to `CC(C)c1c(O)nc(-n2ccnc2)nc1-c1cnn(Cc2cccnc2)c1` [Example 45, 2-(1H-Imidazol-1-yl)-5-(propan-2-yl)-6-[1-(pyridin-3-ylmethyl)-1H-pyrazol-4-yl]-pyrimidin-4-ol], for which the results for the IC50 on KDM5B (setting [1]) and against KDM4C were 10 nM and 1140 nM, respectively.

With `CC(C)c1c(O)nc(-n2ccnc2)nc1OCCc1ccncc1` [Example 129, 2-(1H-Imidazol-1-yl)-5-(propan-2-yl)-6-[2-(pyridin-4-yl)ethoxy]pyrimidin-4-ol], the IC50 on KDM5B is 27 nM; at KDM4C, 1120 nM.

Turning to `CC(C)c1c(O)nc(-n2ccnc2)nc1OCCN1CCCC1=O` [Example 132, 1-(2-{[6-Hydroxy-2-(1H-imidazol-1-yl)-5-(propan-2-yl)pyrimidin-4-yl]oxy}ethyl)-pyrrolidin-2-one], the IC50 was 30 nM against KDM5B and 2410 nM against KDM4C.

Turning to `CC(C)c1c(O)nc(-c2cncs2)nc1OCc1cncnc1` [Example 143, 5-(Propan-2-yl)-6-(pyrimidin-5-ylmethoxy)-2-(1,3-thiazol-5-yl)pyrimidin-4-ol], the IC50 against KDM5B worked out at 138 nM; against KDM4C it was 2960 nM.

Consider `CC(C)c1c(O)nc(-n2ccnc2)nc1-c1cnn(CC(=O)NCCO)c1` [Example 104, 2-{4-[6-Hydroxy-2-(1H-imidazol-1-yl)-5-(propan-2-yl)pyrimidin-4-yl]-1H-pyrazol-1-yl}-N-(2-hydroxy-ethyl)acetamide], for which the values for the IC50 on KDM5B and on KDM4C were 15 nM and 1380 nM, respectively.

For `CC(C)c1c(O)nc(-n2ccnc2)nc1-c1ccc(CN)cc1` [Example 42, 6-[4-(Aminomethyl)phenyl]-2-(1H-imidazol-1-yl)-5-(propan-2-yl)pyrimidin-4-ol], the IC50 at KDM5B is 4 nM; on KDM4C, 554 nM.

Consider `CC(C)c1c(O)nc(-c2cncs2)nc1-c1cnn(C2CCNCC2)c1` [Example 154, 6-[1-(Piperidin-4-yl)-1H-pyrazol-4-yl]-5-(propan-2-yl)-2-(1,3-thiazol-5-yl)pyrimidin-4-ol], for which the IC50 on KDM5B stood at 2130 nM; against KDM4C it was 13900 nM.

For the molecule `CC(C)c1c(O)nc(-n2ccnc2-c2ncccn2)nc1Cl` [Example 88, 6-Chloro-5-(propan-2-yl)-2-[2-(pyrimidin-2-yl)-1H-imidazol-1-yl]pyrimidin-4-ol], the figures for the half-inhibitory concentration (IC50) at KDM5B (setting [1]) and against KDM4C were 563 nM and 8260 nM, respectively.

On to `CC(C)c1c(O)nc(-n2ccnc2)nc1OCC1COCCN1` (stereo not shown) [Example 126, 2-(1H-Imidazol-1-yl)-6-(morpholin-3-ylmethoxy)-5-(propan-2-yl)pyrimidin-4-ol], for which the IC50 on KDM5B came out at 15 nM; at KDM4C, 840 nM.

On to `CC(C)c1c(O)nc(-n2ccnc2)nc1-c1ccc(C(=O)NCC(=O)O)cc1` [Example 85, 2-({4-[6-Hydroxy-2-(1H-imidazol-1-yl)-5-(propan-2-yl)pyrimidin-4-yl]phenyl}-formamido)acetic acid], for which the IC50 was 240 nM against KDM5B and 9710 nM against KDM4C.

In the case of `CC(C)c1c(O)nc(-c2cncs2)nc1OCc1cccnc1` [Example 19, 5-(propan-2-yl)-6-(pyridin-3-ylmethoxy)-2-(1,3-thiazol-5-yl)pyrimidin-4-ol], the results for the IC50 against KDM5B and against KDM4C were 91 nM and 1790 nM, respectively.

Turning to `Cc1nc(-n2cnc(CO)c2)nc(O)c1C(C)C` [Example 24b, 2-[4-(hydroxymethyl)imidazol-1-yl]-5-isopropyl-6-methyl-pyrimidin-4-ol], the IC50 against KDM5B was determined as 1260 nM; on KDM4C it was 16800 nM.

As for `CC(C)c1c(O)nc(-n2ccnc2)nc1-c1cnn(C2CCCC2)c1` [Example 67, 6-(1-Cyclopentyl-1H-pyrazol-4-yl)-2-(1H-imidazol-1-yl)-5-(propan-2-yl)pyrimidin-4-ol], the IC50 on KDM5B was found to be 19 nM; at KDM4C it was 1340 nM.

Turning to `CC(C)c1c(O)nc(-n2ccnc2)nc1-c1cnn(CC(=O)NCC2CN(C)CCO2)c1` (stereo not shown) [Example 97, 2-{4-[6-Hydroxy-2-(1H-imidazol-1-yl)-5-(propan-2-yl)pyrimidin-4-yl]-1H-pyrazol-1-yl}-N-[(4-methyl-morpholin-2-yl)methyl]-acetamide], the IC50 against KDM5B amounted to 7 nM; on KDM4C, 613 nM.

The term IC50 denotes the concentration needed to halve the response being measured.
